Experimental data: the supplement of paper PMC10307832

Legend:
Test in all cases: relative viability (nuclei count vs DMSO), 5 days (fraction); higher = more cells survive
Ponatinib + Phenformin = compound: Cc1ccc(C(=O)Nc2ccc(CN3CCN(C)CC3)c(C(F)(F)F)c2)cc1C#Cc1cnc2cccnn12 [Ponatinib] + N=C(N)NC(=N)NCCc1ccccc1 [Phenformin] (partner 250 µM)
Outline: (§1)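 Relative viability divides the nuclei count in treated wells by that in vehicle wells. Lung cancer cell lines were seeded in 1536-well plates, dosed by pin tool the next day, and fixed and stained after 5 days in one step with final 0.05% Triton X-100, 1% formaldehyde and 1 ug/ml Hoechst. Dosing was a single drug or a fixed anchor-drug dose plus five library-drug doses (not always all listed) in √10 steps, and values are medians of duplicate plates imaged at 4×.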

Ponatinib + Linsitinib = compound: Cc1ccc(C(=O)Nc2ccc(CN3CCN(C)CC3)c(C(F)(F)F)c2)cc1C#Cc1cnc2cccnn12 [Ponatinib] + C[C@]1(O)C[C@@H](c2nc(-c3ccc4ccc(-c5ccccc5)nc4c3)c3c(N)nccn32)C1 [Linsitinib] (partner 1 µM)
Outline: as §1

Pazopanib + Alpelisib = compound: Cc1ccc(Nc2nccc(N(C)c3ccc4c(C)n(C)nc4c3)n2)cc1S(N)(=O)=O [Pazopanib] + Cc1nc(NC(=O)N2CCC[C@H]2C(N)=O)sc1-c1ccnc(C(C)(C)C(F)(F)F)c1 [Alpelisib] (partner 2 µM)
Outline: as §1

Ponatinib + Vorinostat = compound: Cc1ccc(C(=O)Nc2ccc(CN3CCN(C)CC3)c(C(F)(F)F)c2)cc1C#Cc1cnc2cccnn12 [Ponatinib] + O=C(CCCCCCC(=O)Nc1ccccc1)NO [Vorinostat] (partner 1 µM)
Outline: as §1

Work on UMC-11 yielded a relative viability (Ponatinib + Phenformin; first compound 0.002 µM) of 0.305, a relative viability (Ponatinib + Phenformin; first compound 0.006325 µM) of 0.33 and a relative viability (Ponatinib + Phenformin; first compound 0.06325 µM) of 0.366. The relative viability (Ponatinib + Phenformin; first compound 0.2 µM) was 0.317, the relative viability (Ponatinib + Linsitinib; first compound 0.002 µM) was 1.02 and the relative viability (Ponatinib + Linsitinib; first compound 0.006325 µM) was 1.03. It also gave a relative viability (Ponatinib + Linsitinib; first compound 0.06325 µM) of 1.16, a relative viability (Ponatinib + Linsitinib; first compound 0.2 µM) of 1.03 and a relative viability (Pazopanib + Alpelisib; first compound 0.01 µM) of 1.02. It also gave a relative viability (Pazopanib + Alpelisib; first compound 0.03162 µM) of 1.05, a relative viability (Pazopanib + Alpelisib; first compound 0.1 µM) of 0.804 and a relative viability (Pazopanib + Alpelisib; first compound 0.3162 µM) of 0.948. It also gave a relative viability (Pazopanib + Alpelisib; first compound 1 µM) of 1.12, a relative viability (Ponatinib + Vorinostat; first compound 0.002 µM) of 0.411 and a relative viability (Ponatinib + Vorinostat; first compound 0.006325 µM) of 0.403. For the same cell line, the relative viability (Ponatinib + Vorinostat; first compound 0.06325 µM) was 0.51 and the relative viability (Ponatinib + Vorinostat; first compound 0.2 µM) was 0.486.
